Assay results from patent publication US7632829B2, “Diazepan derivatives” (Hoffmann-La Roche Inc., priority 2006, dated 2009).

Target: T1, human chemokine receptor 2 isoform B (Homo sapiens, UniProt P41597)
T1 construct: host or cells: CHOK1-CCR2B-A5 (CHO-K1)
T1 sequence (P41597 1-360 isoform P41597-2): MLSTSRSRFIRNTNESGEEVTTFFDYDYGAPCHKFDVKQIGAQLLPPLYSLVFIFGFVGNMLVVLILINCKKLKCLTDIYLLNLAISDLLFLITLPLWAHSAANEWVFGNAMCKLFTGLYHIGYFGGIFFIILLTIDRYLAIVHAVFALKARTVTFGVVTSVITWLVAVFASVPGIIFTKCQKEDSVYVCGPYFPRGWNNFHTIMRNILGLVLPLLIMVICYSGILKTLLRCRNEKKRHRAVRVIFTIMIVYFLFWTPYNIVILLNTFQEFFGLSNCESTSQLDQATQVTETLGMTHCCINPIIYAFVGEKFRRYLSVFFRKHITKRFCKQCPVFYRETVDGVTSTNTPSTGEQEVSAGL
Test: Calcium mobilization assay (FLIPR, CHOK1-CCR2B-A5 cells, 20 nM MCP-1)
Format: cell-based
Settings: Ca mobilisation assay, CCR2, antagonist activity vs 20 nM MCP-1
Method in brief: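 FLIPR Fluo-4 calcium readout in CHO-K1 cells stably overexpressing human CCR2B; compounds first monitored 80 s for agonist activity, then after 20-30 min at 30 °C challenged with 20 nM MCP-1. Response is max minus basal fluorescence; antagonist value is concentration giving 50% inhibition of specific calcium increase.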

| SMILES | IC50 [nM] |
| --- | --- |
| O=C(/C=C/c1ccc(Cl)c(Cl)c1)N1CCC(=O)N(CCCN2CCC(O)(c3ncco3)CC2)CC1 [Example 85, 1-[(E)-3-(3,4-Dichloro-phenyl)-acryloyl]-4-[3-(4-hydroxy-4-oxazol-2-yl-piperidin-1-yl)-propyl]-[1,4]diazepan-5-one] | 1170 |
| CNC(=O)C1CCN(CCCN2CCN(C(=O)/C=C/c3ccc(Cl)c(Cl)c3)CCC2=O)CC1 [Example 86, 1-(3-{4-[(E)-3-(3,4-Dichloro-phenyl)-acryloyl]-7-oxo-[1,4]diazepan-1-yl}-propyl)-piperidine-4-carboxylic acid methylamide] | 1080 |
| O=C1CC2(CCN(CCCN3CCN(C(=O)/C=C/c4ccc(Cl)c(Cl)c4)CCC3=O)CC2)C(=O)N1 [Example 87, 8-(3-{4-[(E)-3-(3,4-Dichloro-phenyl)-acryloyl]-7-oxo-[1,4]diazepan-1-yl}-propyl)-2,8-diaza-spiro[4.5]decane-1,3-dione] | 315 |
| O=C1CC2(CCN(CCCN3CCN(C(=O)/C=C/c4ccc(Cl)c(Cl)c4)CCC3=O)CC2)CN1 [Example 88, 8-(3-{4-[(E)-3-(3,4-Dichloro-phenyl)-acryloyl]-7-oxo-[1,4]diazepan-1-yl}-propyl)-2,8-diaza-spiro[4.5]decan-3-one] | 757 |
| O=C(/C=C/c1ccc(Cl)c(Cl)c1)N1CCC(=O)N(CCCN2CCC[C@@H](O)C2)CC1 [Example 91, (R)-1-[(E)-3-(3,4-Dichloro-phenyl)-acryloyl]-4-[3-(3-hydroxy-piperidin-1-yl)-propyl]-[1,4]diazepan-5-one] | 148 |
| O=C(/C=C/c1ccc(Cl)c(Cl)c1)N1CCC(=O)N(CCCN2CCC[C@H](O)C2)CC1 [Example 92, (S)-1-[(E)-3-(3,4-Dichloro-phenyl)-acryloyl]-4-[3-(3-hydroxy-piperidin-1-yl)-propyl]-[1,4]diazepan-5-one] | 189 |
| O=C(/C=C/c1ccc(Cl)c(Cl)c1)N1CCC(=O)N(CCN2CCC(O)(c3ccccc3)CC2)CC1 [Example 96, 1-[(E)-3-(3,4-Dichloro-phenyl)-acryloyl]-4-[3-(4-hydroxy-4-phenyl-piperidin-1-yl)-ethyl]-[1,4]diazepan-5-one] | 1140 |
| O=C(/C=C/c1ccc(Cl)c(Cl)c1)N1CCC(=O)N(CCN2CCC(O)(c3cccnc3)CC2)CC1 [Example 99, 1-[(E)-3-(3,4-Dichloro-phenyl)-acryloyl]-4-[3-(4′-hydroxy-3′,4′,5′,6′-tetrahydro-2′H-[3,4′]bipyridinyl-1′-yl)-ethyl]-[1,4]diazepan-5-one] | 1220 |
| N#CC1(c2ccccc2)CCN(CCN2CCN(C(=O)/C=C/c3ccc(Cl)c(Cl)c3)CCC2=O)CC1 [Example 101, 1-(-3-{4-[(E)-3-(3,4-Dichloro-phenyl)-acryloyl]-7-oxo-[1,4]diazepan-1-yl}-ethyl)-4-phenyl-piperidine-4-carbonitrile] | 1230 |
| O=C(/C=C/c1ccc(Cl)c(Cl)c1)N1CCC(=O)N(CCNC2CCOCC2)CC1 [Example 103, 1-[(E)-3-(3,4-Dichloro-phenyl)-acryloyl]-4-[3-(tetrahydro-pyran-4-ylamino)-ethyl]-[1,4]diazepan-5-one] | 388 |
| O=C(C=Cc1ccc(Cl)c(Cl)c1)N1CCC(=O)N(CCNC2CCC(O)(c3ccccn3)CC2)CC1 (stereo not drawn) [Example 105, trans-1-[(E)-3-(3,4-Dichloro-phenyl)-acryloyl]-4-[3-(4-hydroxy-4-pyridin-2-yl-cyclohexylamino)-ethyl]-[1,4]diazepan-5-one] | 806 |
| O=C(/C=C/c1ccc(Cl)c(Cl)c1)N1CCC(=O)N(CCN[C@H]2CC[C@H](O)CC2)CC1 [Example 106, trans-1-[(E)-3-(3,4-Dichloro-phenyl)-acryloyl]-4-[2-(4-hydroxy-cyclohexylamino)-ethyl]-[1,4]diazepan-5-one] | 523 |
| O=C(/C=C/c1ccc(Cl)c(Cl)c1)N1CCC(=O)N(CCNC2CCCC2)CC1 [Example 108, 4-[3-(Cyclopentyl-amino)-ethyl]-1-[(E)-3-(3,4-dichloro-phenyl)-acryloyl]-[1,4]diazepan-5-one] | 1200 |
| CN(CCN1CCN(C(=O)/C=C/c2ccc(Cl)c(Cl)c2)CCC1=O)C1CCCC1 [Example 109, 4-[-3-(Cyclopentyl-methyl-amino)-ethyl]-1-[(E)-3-(3,4-dichloro-phenyl)-acryloyl]-[1,4]diazepan-5-one] | 521 |
| O=C(/C=C/c1ccc(Cl)c(Cl)c1)N1CCC(=O)N(CCN2CCC[C@H]2CO)CC1 [Example 117, (S)-1-[(E)-3-(3,4-Dichloro-phenyl)-acryloyl]-4-[3-(2-hydroxymethyl-pyrrolidin-1-yl)-ethyl]-[1,4]diazepan-5-one] | 459 |
| CC1CCN(CCN2CCN(C(=O)/C=C/c3ccc(Cl)c(Cl)c3)CCC2=O)CC1 [Example 120, 1-[(E)-3-(3,4-Dichloro-phenyl)-acryloyl]-4-[3-(4-methyl-piperidin-1-yl)-ethyl]-[1,4]diazepan-5-one] | 1140 |

| SMILES | IC50 [nM] |
| --- | --- |
| CN(CCN1CCN(C(=O)/C=C/c2ccc(Cl)c(Cl)c2)CCC1=O)C1CCOCC1 [Example 134, 1-[(E)-3-(3,4-Dichloro-phenyl)-acryloyl]-4-{3-[methyl-(tetrahydro-pyran-4-yl)-amino]-ethyl}-[1,4]diazepan-5-one] | 600 |
| CC(C)N1CCC(NCCN2CCN(C(=O)/C=C/c3ccc(Cl)c(Cl)c3)CCC2=O)CC1 [Example 136, 1-[(E)-3-(3,4-Dichloro-phenyl)-acryloyl]-4-[2-(1-isopropyl-piperidin-4-ylamino)-ethyl]-[1,4]diazepan-5-one] | 688 |
| C[N+]1(CCCN2CCN(C(=O)/C=C/c3ccc(Cl)c(Cl)c3)CCC2=O)CCC2(CC1)NC(=O)NC2=O (stereo not shown) [Example 153, 8-(3-{4-[(E)-3-(3,4-Dichloro-phenyl)-acryloyl]-7-oxo-[1,4]diazepan-1-yl}-propyl)-8-methyl-2,4-dioxo-1,3-diaza-8-azonia-spiro[4.5]decane iodide] | 446 |
| C[N+]1(CCCN2CCN(C(=O)C=Cc3ccc(Cl)c(Cl)c3)CCC2=O)CCCCC1 [Example 154, 1-(3-{4-[3-(3,4-Dichloro-phenyl)-acryloyl]-7-oxo-[1,4]diazepan-1-yl}-propyl)-1-methyl-piperidinium iodide] | 373 |
| O=C(/C=C/c1ccc(Cl)c(Cl)c1)N1CCC(=O)N(CCCCN2CCOCC2)CC1 [Example 155, 1-[(E)-3-(3,4-Dichloro-phenyl)-acryloyl]-4-(4-morpholin-4-yl-butyl)-[1,4]diazepan-5-one] | 370 |
| O=C(/C=C/c1ccc2ccccc2c1)N1CCC(=O)N(CCCN2CCCCC2)CC1 [Example 157, 1-((E)-3-Naphthalen-2-yl-acryloyl)-4-(3-piperidin-1-yl-propyl)-[1,4]diazepan-5-one] | 703 |
| O=C(/C=C/c1ccc(Cl)c(Cl)c1)N1CCC(=O)N(CCCN2CCC(O)CC2)CC1 [Example 159, 1-[(E)-3-(3,4-Dichloro-phenyl)-acryloyl]-4-[3-(4-hydroxy-piperidin-1-yl)-propyl]-[1,4]diazepan-5-one] | 258 |
| O=C(/C=C/c1ccc(Cl)c(Cl)c1)N1CCC(=O)N(CCCCCN2CCCCC2)CC1 [Example 162, 1-[(E)-3-(3,4-Dichloro-phenyl)-acryloyl]-4-(5-piperidin-1-yl-pentyl)-[1,4]diazepan-5-one] | 319 |
| O=C(/C=C/c1ccc(Cl)c(Cl)c1)N1CCC(=O)N(C[C@@H](O)CN2CCCCC2)CC1 [Example 167, 1-[(E)-3-(3,4-Dichloro-phenyl)-acryloyl]-4-((S)-2-hydroxy-3-piperidin-1-yl-propyl)-[1,4]diazepan-5-one] | 28 |
| O=C(/C=C/c1ccc(Cl)c(Cl)c1)N1CCC(=O)N(CC[C@@H](O)CN2CCCCC2)CC1 [Example 172, 1-[(E)-3-(3,4-Dichloro-phenyl)-acryloyl]-4-((R)-3-hydroxy-4-piperidin-1-yl-butyl)-[1,4]diazepan-5-one] | 105 |
| O=C(/C=C/c1ccc(F)c(Cl)c1)N1CCC(=O)N(C[C@@H](O)CN2CCCCC2)CC1 [Example 175, 1-[(E)-3-(3-Chloro-4-fluoro-phenyl)-acryloyl]-4-((S)-2-hydroxy-3-piperidin-1-yl-propyl)-[1,4]diazepan-5-one] | 96 |
| O=C(/C=C/c1ccc(Cl)c(Cl)c1)N1CCC(=O)N(CC[C@H](O)CN2CCCCC2)CC1 [Example 178, 1-[(E)-3-(3,4-Dichloro-phenyl)-acryloyl]-4-((S)-3-hydroxy-4-piperidin-1-yl-butyl)-[1,4]diazepan-5-one] | 201 |
| C[C@@H]1CN(CCCN2CCCCC2)C(=O)CCN1C(=O)/C=C/c1ccc(Cl)c(Cl)c1 [Example 186, (R)-1-[(E)-3-(3,4-Dichloro-phenyl)-acryloyl]-2-methyl-4-(3-piperidin-1-yl-propyl)-[1,4]diazepan-5-one] | 38 |
| O=C(/C=C/c1cccc(Cl)c1)N1CCC(=O)N(CCCN2CCCCC2)CC1 [Example 188, 1-[(E)-3-(3-Chloro-phenyl)-acryloyl]-4-(3-piperidin-1-yl-propyl)-[1,4]diazepan-5-one] | 1340 |
| O=C(/C=C/c1ccc(F)c(Cl)c1)N1CCC(=O)N(CCCN2CCC3(CC3)C(O)C2)CC1 (stereo not drawn) [Example 189, 1-[(E)-3-(3-Chloro-4-fluoro-phenyl)-acryloyl]-4-[3-((-)-4-hydroxy-6-aza-spiro[2.5]oct-6-yl)-propyl]-[1,4]diazepan-5-one] | 8 |
